For 13 compounds, emission maximum results are on record in the Deep4Chem optical property database.

The data set can be described thus: solvent given as SMILES.

Each structure is given as a SMILES string.

As for `CC(C)(C)c1ccc2oc(-c3ccc(-c4nc5cc(C(C)(C)C)ccc5o4)s3)nc2c1`, the emission maximum is given as 426 nm (in C1CCCCC1); 432 nm (in C1CCOC1); 426 nm (in CC1CCCCC1); 432 nm (in CC#N); 434 nm (in CCCCO); 434 nm (in CCO). Also, the emission maximum is, setting by setting: (in CN(C)C=O) 434 nm; (in Cc1ccccc1) 434 nm; (in Clc1ccccc1Cl) 437 nm; (in c1ccccc1) 434 nm.
Regarding `CNCCCC1c2ccccc2C=Cc2ccccc21`, the emission maximum by setting is: (in CC#N) 358 nm; (in CO) 358 nm; (in O) 360 nm.
Regarding `O=C1c2cccc3cc4ccccc4c(c23)C(=O)N1Cc1ccccn1`, the emission maximum was 485 nm (in C1CCOC1); 465 nm (in CCCCCC); 500 nm (in CCO); 483 nm (in Cc1ccccc1); 490 nm (in ClCCl).
Turning to `CC(C)[Si](C#CC1=CC2=c3cc(C#C[Si](C(C)C)(C(C)C)C(C)C)c4nc(C(F)(F)C(F)(F)C(F)(F)F)nc5c(C#C[Si](C(C)C)(C(C)C)C(C)C)cc(c3c54)C3=CC(C#C[Si](C(C)C)(C(C)C)C(C)C)=C4N=C(C(F)(F)C(F)(F)C(F)(F)F)N=C1C4C32)(C(C)C)C(C)C` (stereo unspecified), the emission maximum (in C1CCOC1) is reported as 525 nm.
Take `c1cc2c3cc1c1ccc4c(c1)c1cc(ccc1[C@]15OCCO[C@]41OCCO5)c1ccc4c(c1)c1cc(ccc1[C@]15OCCO[C@]41OCCO5)c1ccc(c3c1)[C@]13OCCO[C@]21OCCO3`: for the setting “in Cc1ccccc1”, the emission maximum stood at 343 nm.
Where the note is “in ClCCl”, `CCCCCCN1C(=O)c2cccc3c(-c4ccc(-c5cc(-c6ccc(Cl)cc6)n(-c6ccccc6)n5)s4)ccc(c23)C1=O` registered an emission maximum of 517 nm.
`CC(C)(C)c1ccc(-c2c(-c3ccc(-n4c5ccccc5c5ccccc54)cc3)cc(-c3ccc(-n4c5ccccc5c5ccccc54)cc3)c(-c3ccc(C(C)(C)C)cc3)c2-c2ccc(C(C)(C)C)cc2)cc1` returned an emission maximum (in C1CCOC1) of 367 nm.
Turning to `COc1cnc(-c2cc[n+](C3=C(F)C(F)(F)C(F)(F)[C-]3F)cc2)s1`, the emission maximum is on record as 474 nm (in CC#N); 474 nm (in CC(C)=O); 474 nm (in CCO); 485 nm (in CN(C)C=O); 472 nm (in CO); 490 nm (in CS(C)=O). Moreover, the emission maximum was determined as 462 nm (in ClC(Cl)Cl) and 466 nm (in ClCCl).
`OC1(c2ccc(-c3cccs3)s2)CCCCC1` showed an emission maximum (in C1CCOC1) of 458 nm; an emission maximum (in CC#N) of 466 nm; an emission maximum (in CCCCCC) of 465 nm; an emission maximum (in CCO) of 465 nm; an emission maximum (in OCCOCCO) of 447 nm; an emission maximum (in c1ccncc1) of 475 nm.
For the compound `CCOC(=O)c1ccccc1-c1c2ccc(=[N+](CC)CC)cc-2oc2c1c(=O)oc1cc3c(cc12)CCCN3C`, the emission maximum is on record as 658 nm (in CCO), 647 nm (in ClC(Cl)Cl) and 666 nm (in O).
Take `CC(C)c1cccc(C(C)C)c1-n1c(=O)c2cc3nc(-c4ccccc4)c4cc5c(=O)n(-c6c(C(C)C)cccc6C(C)C)c(=O)c6cc7nc(-c8ccccc8)c8cc(c1=O)c2c1c3c4c(c65)c7c81`: under “in ClC(Cl)Cl”, the emission maximum is recorded as 502 nm.
`Cc1c(COC(=O)c2ccccc2Cl)n2c(OCC(=O)c3ccccc3Cl)c(C)c(=O)n2c1=O` yielded an emission maximum (in CCO) of 459 nm.
On to `N#Cc1c(N2CCCCC2)cc(-c2ccc(O)cc2)c2c1-c1cccc3cccc-2c13`, for which the emission maximum runs as follows: (in C1CCCCC1) 527 nm; (in C1COCCO1) 540 nm; (in CC#N) 569 nm; (in CCO) 548 nm; (in CN(C)C=O) 573 nm; (in CO) 554 nm. Further, the emission maximum runs as follows: (in CS(C)=O) 580 nm; (in Cc1ccccc1) 530 nm; (in ClCCl) 545 nm; (in O) 550 nm.
